Tests used:
[1] = system: free ADPR sensor (cpVenus integrated between amino acids 118 and 119 of Shewanella oneidensis NrtR, Uniprot Q8EFJ3; K435A, S436D, D122N), SEQ ID NO: 1; test: Fluorescence response of purified free ADPR sensor to ligands in vitro; format: binding; settings: role: ligand; for sensor fluorescence response (in words): FIG. 5A; for sensor responsivity (in words): structurally related molecules, FIG. 5
From the text: (§1) The sensor is based on a circularly-permutated single fluorescent protein design (Baird et al, 1999 PNAS and reviewed in Nasu et al, 2021 Nat Chem Biol). For the fluorescence readout, the GFP-derived fluorescent protein, Venus, was used. Venus was circularly permutated and reforms to its fluorescent beta barrel fold by introducing a cut between amino acids 144 and 145 and connecting its original N- and C-termini with a 5 amino acid GGSGG linker sequence (circularly permutated Venus now referred to as cpVenus or cpV). Circular permutation permits attachment of an analyte binding domain in close proximity to the chromophore of Venus. The analyte binding domain confers selectivity of ligand binding to the sensor. The Nudix-like bacterial transcription factor NrtR from Shewanella oneidensis was used that is an ADPR-dependent transcriptional repressor (Rodionov et al, 2008 Nucleic Acids Res; Gao et al, 2019 eLIFE). The cpV protein was integrated between amino acids 118 and 119 in the sequence of NrtR (Uniprot Q8EFJ3).
Based on these analyses, cpV integrated into site 118/119 in NrtR was chosen for further analyses. This site is adjacent to the hinge region of the ligand-binding site, and it is within an alpha-helix that undergoes a disruptive loss of secondary structure when free ADPR binds (FIG. 1). The model is that this structural change is transduced to the nearby chromophore of cpV to cause a change in fluorescence intensity. This may occur through disruption of the chromophore or shifting the pKa of the chromophore.
Due to the compact nature of NrtR, attempts to use truncation to eliminate the DNA-binding domain appeared to destabilize the whole protein and thus could not be used. Instead, three point mutations were identified and used to ablate the outward facing overall positive change on this domain. These point mutations are distinct from the ligand-binding domain. The specific sites and their mutations (K435A and S436D) were identified through empirical screening and it was determined that in combination they alleviated aggregation of the sensor when it was ectopically expressed (FIG. 2).
The mutation D122N was also incorporated to reduce the number of polar and charged side-chains in proximity to the sensor's chromophore. The rationale was that charged residues could shift the local pKa of the chromophore promoting in its protonation. Introduction of D122N improved the brightness of the sensor and stabilized its pH-sensitivity between pH 7.4-8.0 (FIG. 3)
The sequence of the free ADPR sensor is shown in SEQ ID NO: 1.
The purified sensor (FIG. 4) decreased in fluorescence intensity with addition of free ADPR. At high concentrations, it saturated with ~80% diminishment of sensor brightness that represented an […] dose-dependent response (FIG. 4B, red). […] It was determined that the sensor responds to free ADPR with a Kd~2 μM±1 μM and is thus poised to detect intracellular free ADPR concentrations (Heiner, et al, 2006 Biochem J; Gasser and Guse, 2005 J Chromatogr B Analyt Technol Biomed Life Sci; Gasser et al, 2006 J Biol Chem).

PARP1/2 = test: Free ADPR sensor response in live cells after acute H2O2 treatment (confocal imaging), with PARP1/2 inhibitor; format: cell-based; settings: role: inhibitor (PARP1/2), FIG. 7
Protocol: (§2) Values are mean (F/F0)±SD, analyzed by confocal microscopy.
(§3) With confocal imaging, it was determined that the free ADPR sensor responded in live cells to an accumulation of free ADPR upon oxidation stress by acute H2O2 treatment (FIG. 7). In this experimental paradigm, H2O2 induces PARP1/2 to generate poly-ADPR chains, and due to the activities of glycohydrolases, this in turn leads to increased levels of free ADPR monomers. […] The generation of free ADPR was confirmed by a GCaMP7s sensor that monitored the resulting Ca^2+ influx from activation of co-expressed TRPM2 (FIG. 7B).

[2] = system: free ADPR sensor no binding control R98E (cpVenus in Shewanella oneidensis NrtR, Uniprot Q8EFJ3; binding pocket mutant R98E), SEQ ID NO: 2; test: Fluorescence response of non-binding control sensor to ligands in vitro; settings: role: ligand, FIG. 4B
From the text: as §1
The purified sensor (FIG. 4) decreased in fluorescence intensity with addition of free ADPR. At high concentrations, it saturated with ~80% diminishment of sensor brightness that represented an ~4-fold dose-dependent response (FIG. 4B, red). […]

free ADPR sensor = test: Free ADPR sensor response in live cells to H2O2 treatment (confocal microscopy); format: cell-based; settings: role: activator (oxidation stress), acute H2O2 treatment, FIG. 7
Protocol: as §2, §3

TRPM2 = TRPM2 response in live cells to H2O2 treatment, Ca2+ influx reported by GCaMP7s; format: cell-based; settings: role: activator (via increased free cytosolic ADPR), GCaMP7s readout, FIG. 7B
Protocol: as §2, §3

| Compound | sensor fluorescence response (in words) [1] | further results |
| --- | --- | --- |
| Nc1ncnc2c1ncn2[C@@H]1O[C@H](COP(=O)(O)OP(=O)(O)OP(=O)(O)O)[C@@H](O)[C@H]1O [ATP, adenosine triphosphate] | does not respond | sensor responsivity (in words) [1]: minimal responsivity |
| O=C(c1cc(Cc2n[nH]c(=O)c3ccccc23)ccc1F)N1CCN(C(=O)C2CC2)CC1 [olaparib] | – | effect on H2O2-induced free ADPR sensor responses (in words) (PARP1/2): eliminated sensor responses |
| Nc1ncnc2c1ncn2[C@H]1C[C@H](O)[C@@H](COP(=O)(O)OP(=O)(O)OC[C@H]2OC(O)[C@H](O)[C@@H]2O)O1 (stereo partly drawn) [2′-deoxy ADPR] | responds | – |
| CC(=O)O[C@H]1C(O)O[C@H](COP(=O)(O)OP(=O)(O)OC[C@H]2O[C@@H](n3cnc4c(N)ncnc43)[C@H](O)[C@@H]2O)[C@H]1O (stereo partly drawn) [O-Acetyl ADPR] | responds | – |
| N=c1c2ncn3c2ncn1[C@@H]1O[C@H](COP(=O)(O)OP(=O)(O)OC[C@H]2O[C@@H]3[C@H](O)[C@@H]2O)[C@@H](O)[C@H]1O [cyclic ADPR] | does not respond | – |
| Nc1ncnc2c1ncn2[C@@H]1O[C@H](COP(=O)(O)OP(=O)(O)OC[C@H]2O[C@@H]([n+]3cccc(C(=O)O)c3)[C@H](O)[C@@H]2O)[C@@H](O)[C@H]1OP(=O)(O)O [NaADP^+] | does not respond | – |
| Nc1ncnc2c1ncn2[C@@H]1O[C@@H]2COP(=O)(O)OP(=O)(O)OC[C@H]3OC(O[C@@H]1[C@@H]2O)[C@H](O)[C@@H]3O [2′-cyclic ADPR] | does not respond | – |
| Nc1ncnc2c1ncn2[C@@H]1O[C@@H]2COP(=O)(O)OP(=O)(O)OC[C@H]3OC(O[C@H]2[C@H]1O)[C@H](O)[C@@H]3O [3′-cyclic ADPR] | does not respond | – |
| Nc1ncnc2c1ncn2[C@@H]1O[C@H](COP(=O)(O)O)[C@@H](O)[C@H]1O [AMP, adenosine monophosphate] | does not respond | – |
| Nc1ncnc2c1ncn2[C@@H]1O[C@H](COP(=O)(O)OP(=O)(O)O)[C@@H](O)[C@H]1O [ADP, adenosine diphosphate] | does not respond | sensor responsivity (in words) [1]: minimal responsivity |
| Nc1ncnc2c1ncn2[C@@H]1O[C@H](COP(=O)(O)OP(=O)(O)OC[C@H]2OC(O)[C@H](O)[C@@H]2O)[C@@H](O)[C@H]1O (stereo partly drawn) [free ADPR, Adenosine 5′Di-Phosphate Ribose] | responds | response of binding mutant to free ADPR (in words) [2]: did not respond; fluorescence intensity with increasing free ADPR concentrations (in words) ([1]; FIG. 4B, mean of n=3): decreases; diminishment of sensor brightness at saturation ([1]; at high concentrations (saturated)): ~ 80%; dose-dependent response (fold) ([1]; fluorescence intensity, at saturation): ~ 4 fold |
| NC(=O)c1ccc[n+]([C@@H]2O[C@H](COP(=O)(O)OP(=O)(O)OC[C@H]3O[C@@H](n4cnc5c(N)ncnc54)[C@H](O)[C@@H]3O)[C@@H](O)[C@H]2O)c1 [NAD^+, oxidized nicotinamide adenine dinucleotide] | does not respond | – |
| OO [H2O2] | – | free ADPR sensor response to accumulation of free ADPR (in words) (free ADPR sensor): responded; TRPM2 response, influx of intracellular Ca2+ (in words) (TRPM2): responds with an influx of intracellular Ca^2+ |
| NC(=O)C1=CN([C@@H]2O[C@H](COP(=O)(O)OP(=O)(O)OC[C@H]3O[C@@H](n4cnc5c(N)ncnc54)[C@H](O)[C@@H]3O)[C@@H](O)[C@H]2O)C=CC1 [NADH, nicotinamide adenine dinucleotide] | does not respond | – |
| Nc1ncnc2c1ncn2[C@@H]1O[C@H](COP(=O)(O)OP(=O)(O)OC[C@H]2OC(O)[C@H](O)[C@@H]2O)[C@@H](O)[C@H]1OP(=O)(O)O (stereo partly drawn) [phospho ADPR] | responds | – |
| O=C(CO)[C@H](O)[C@H](O)COP(=O)(O)O [Ribulose-5-Phosphate] | does not respond | – |
| Nc1ncnc2c1ncn2[C@@H]1O[C@H](COP(=O)(O)OP(=O)(O)OC[C@H]2O[C@@H]([n+]3cccc(C(=O)O)c3)[C@H](O)[C@@H]2O)[C@@H](O)[C@H]1O [NAAD^+] | does not respond | – |
